One molecule from article doi:10.1101/2025.05.23.655777v1 (biorxiv, 2025) can be followed below.

The experiment has as its target GABA-AT; GABA aminotransferase 1 (recombinant) (Arabidopsis thaliana, UniProt Q94CE5). Briefly: inhibition kinetics, LDH-coupled or HPLC assay, competitive fit. The format is biochemical.

pKi: −log10 of the molar value.

On to `N[C@@H](CS)C(=O)O` [L-cysteine], for which the pKi was 3.38.

As a reminder, the pKi is −log10 of the Ki, conventionally taken in molar units.
